Results: ChEMBL document CHEMBL5505967, “Design and synthesis of 4-amino-2',4'-dihydroxyindanone derivatives as potent inhibitors of tyrosinase and melanin biosynthesis in human melanoma cells” (Eur J Med Chem, 2024)

Assays:
Tyrosinase [1] = target: T1, Tyrosinase (Homo sapiens, UniProt P14679)
T1 sequence (P14679 whole entry): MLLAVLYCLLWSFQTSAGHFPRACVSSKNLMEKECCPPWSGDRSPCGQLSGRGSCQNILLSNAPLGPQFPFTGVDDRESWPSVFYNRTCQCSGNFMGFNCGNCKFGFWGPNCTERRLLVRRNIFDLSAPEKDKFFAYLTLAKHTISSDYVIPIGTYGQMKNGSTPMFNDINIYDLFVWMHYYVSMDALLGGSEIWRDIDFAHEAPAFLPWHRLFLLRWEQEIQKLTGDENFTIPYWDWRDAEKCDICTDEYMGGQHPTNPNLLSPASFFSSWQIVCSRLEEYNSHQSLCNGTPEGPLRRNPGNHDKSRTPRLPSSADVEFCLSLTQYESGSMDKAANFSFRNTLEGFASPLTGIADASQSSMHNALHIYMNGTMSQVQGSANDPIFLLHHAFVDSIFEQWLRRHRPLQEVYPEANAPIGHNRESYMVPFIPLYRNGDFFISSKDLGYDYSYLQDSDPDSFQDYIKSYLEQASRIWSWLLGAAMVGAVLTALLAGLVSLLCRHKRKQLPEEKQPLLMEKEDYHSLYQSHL
Description: Inhibition of tyrosinase in human MNT-1 cells using L-DOPA as substrate preincubated for 10 mins followed by substrate addition measured after 180 mins by absorbance based spectramax microplate reader assay

MNT-1 [2] = assay: cells; details: Homo sapiens, MNT-1, 96 h
Description: Inhibition of melanogenesis in human MNT-1 cells incubated for 4 days

MNT-1 [3] = assay: cells; details: Homo sapiens, MNT-1, 336 h
Description: Cytotoxicity against human MNT-1 cells incubated for 14 days by resazurin assay

MNT-1 [4] = assay: cells; details: Homo sapiens, MNT-1, 96 h; remark: listed apart in the source
Description: Cytotoxicity against human MNT-1 cells incubated for 4 days by resazurin assay

MNT-1 [5] = assay: cells; details: Homo sapiens, MNT-1, 336 h; remark: listed apart in the source
Description: Inhibition of melanogenesis in human MNT-1 cells incubated for 14 days

Mushroom tyrosinase = Mushroom tyrosinase (Agaricus bisporus, UniProt O42713+Q00024+C7FF04+C7FF05); assay: Inhibition of mushroom tyrosinase using L-DOPA as substrate preincubated for 10 mins followed by substrate addition measured after 10 mins by absorbance based spectramax microplate reader assay; format: protein assay
Tyrosinase [6] = target: T1, Tyrosinase; assay: Inhibition of His-tagged human tyrosinase expressed in HEK293 cells using L-DOPA as substrate by microplate reader analysis

IC50 (Tyrosinase [1]) [µM]	IC50 (MNT-1 [2]) [µM]	IC50 (MNT-1 [5]) [µM]	IC50 (Mushroom tyrosinase) [µM]	IC50 (Tyrosinase [6]) [µM]	Compound	CC50 (MNT-1 [3]) [µM]	CC50 (MNT-1 [4]) [µM]
0.17	10	0.28			CC(C)C(=O)Nc1nc(-c2ccc(O)cc2O)cs1	36	> 100
			0.09		O=C1/C(=C/c2ccc(O)cc2O)Cc2c(O)cccc21		
			0.46		CC(C)[C@@H](N)C(=O)Nc1cccc2c1C/C(=C\c1ccc(O)cc1O)C2=O		
			0.086		O=C1/C(=C/c2ccc(O)cc2O)Cc2c(Br)cccc21		
> 100			0.16		O=C1/C(=C/c2ccc(O)cc2O)Cc2c1cccc2[N+](=O)[O-]		
	24	2	0.006		CCCC(=O)Nc1cccc2c1C/C(=C\c1ccc(O)cc1O)C2=O	77	> 100
			0.1		O=C(Nc1cccc2c1C/C(=C\c1ccc(O)cc1O)C2=O)c1ccccc1		
	3.8	0.53	0.027		Nc1cccc2c1C/C(=C\c1ccc(O)cc1O)C2=O	66	> 100
	19	4.6	0.6		C[C@H](N)C(=O)Nc1cccc2c1C/C(=C\c1ccc(O)cc1O)C2=O	94	> 100
	3.2	0.77	0.014		CNc1cccc2c1C/C(=C\c1ccc(O)cc1O)C2=O	29	78
			0.26		N#Cc1cccc2c1C/C(=C\c1ccc(O)cc1O)C2=O		
			0.16		COc1cccc2c1C/C(=C\c1ccc(O)cc1O)C2=O		
			0.15		O=C1/C(=C/c2ccc(O)cc2O)Cc2c(F)cccc21		
	8	3.1	0.014		CCC(=O)Nc1cccc2c1C/C(=C\c1ccc(O)cc1O)C2=O	65	> 100
> 100			0.18		O=C1/C(=C/c2ccc(O)cc2O)Cc2c1cccc2C(F)(F)F		
	19	3.3	0.009		CC(=O)Nc1cccc2c1C/C(=C\c1ccc(O)cc1O)C2=O	67	> 100
	21	4.1	0.019		Cc1cccc2c1C/C(=C\c1ccc(O)cc1O)C2=O	61	> 100
	29	12	0.39		NCC(=O)Nc1cccc2c1C/C(=C\c1ccc(O)cc1O)C2=O	> 100	> 100
	7	2.1	0.06		CC(C)C(=O)Nc1cccc2c1C/C(=C\c1ccc(O)cc1O)C2=O	62	> 100
			0.083		CN(C)c1cccc2c1C/C(=C\c1ccc(O)cc1O)C2=O		
				> 3000	Oc1cccc(O)c1 [RESORCINOL]		
